Target: T1, His-hMAGL (recombinant polyhistidine tagged human MAGL protein) (Homo sapiens, UniProt Q99685)
T1 construct: made in house; host or cells: E. coli BL21(DE3)
T1 sequence (Q99685 1-303): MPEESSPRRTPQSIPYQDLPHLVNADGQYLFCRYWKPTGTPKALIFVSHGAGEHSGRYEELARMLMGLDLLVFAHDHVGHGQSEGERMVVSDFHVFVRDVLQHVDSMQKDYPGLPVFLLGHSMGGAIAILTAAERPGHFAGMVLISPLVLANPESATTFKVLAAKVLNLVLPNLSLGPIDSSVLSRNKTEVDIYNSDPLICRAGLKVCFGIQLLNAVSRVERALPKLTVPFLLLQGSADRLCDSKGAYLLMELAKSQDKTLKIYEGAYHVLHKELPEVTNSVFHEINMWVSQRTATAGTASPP
Test: Measurement of MAGL inhibitory activity (arachidonic acid production from 2-arachidonylglycerol, RapidFire-mass spectrometry)
Type: biochemical
Details: MAGL inhibitory rate at 10 μM test compound; 60 min preincubation with His-hMAGL, 2-arachidonylglycerol substrate, 10 min reaction at room temperature
How it was run: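 Recombinant His-tagged human MAGL converted 2-arachidonylglycerol to arachidonic acid. Reactions received acetonitrile with 3 μM arachidonic acid-d8 as internal standard, and product was quantified by RapidFire SPE (C4) with negative-mode SRM mass spectrometry. Percent inhibition was calculated against compound-free and enzyme-free controls.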

Row | inhibition at 10 µM [%] | Structure (SMILES)
1 | 100 | O=C1COc2cc(F)c(C(=O)N3CC(COc4ccc(-c5ccncc5F)cc4F)C3)cc2N1 [Example 242, 7-fluoro-6-((3-((2-fluoro-4-(3-fluoropyridin-4-yl)phenoxy)methyl)azetidin-1-yl)carbonyl)-2H-1,4-benzoxazin-3(4H)-one]
2 | 100 | Cc1cccnc1-c1ccc(OCC2CN(C(=O)c3cc4c(cc3F)OCC(=O)N4)C2)c(F)c1 [Example 231, 7-fluoro-6-((3-((2-fluoro-4-(3-methylpyridin-2-yl)phenoxy)methyl)azetidin-1-yl)carbonyl)-2H-1,4-benzoxazin-3(4H)-one]
3 | 99 | CC(Oc1ccc(F)cc1Cl)C1CN(C(=O)c2cc3c(cc2F)OCC(=O)N3)C1 (stereo not shown) [Example 297, 6-((3-(1-(2-chloro-4-fluorophenoxy)ethyl)azetidin-1-yl)carbonyl)-7-fluoro-2H-1,4-benzoxazin-3(4H)-one]
4 | 102 | O=C1COc2cc(F)c(C(=O)N3CC(COc4ccc(-c5ccnc(F)c5)cc4F)C3)cc2N1 [Example 240, 7-fluoro-6-((3-((2-fluoro-4-(2-fluoropyridin-4-yl)phenoxy)methyl)azetidin-1-yl)carbonyl)-2H-1,4-benzoxazin-3(4H)-one]
5 | 99 | O=C1COc2ccc(C(=O)N3CC(OCc4ccc(F)cc4Cl)C3)cc2N1 [Example 323, 6-((3-((2-chloro-4-fluorobenzyl)oxy)azetidin-1-yl)carbonyl)-2H-1,4-benzoxazin-3(4H)-one]
6 | 101 | O=C1COc2cc(F)c(C(=O)N3CC(COc4cccc5ocnc45)C3)cc2N1 [Example 106, 6-((3-((1,3-benzoxazol-4-yloxy)methyl)azetidin-1-yl)carbonyl)-7-fluoro-2H-1,4-benzoxazin-3(4H)-one]
7 | 98 | O=C1COc2cc(F)c(C(=O)N3CC(COc4ccc5cccnc5c4)C3)cc2N1 [Example 171, 7-fluoro-6-((3-((quinolin-7-yloxy)methyl)azetidin-1-yl)carbonyl)-2H-1,4-benzoxazin-3(4H)-one]
8 | 97 | O=C1COc2cc(F)c(C(=O)N3CC(COc4ccc(C(F)(F)F)cc4F)C3)cc2N1 [Example 188, 7-fluoro-6-((3-((2-fluoro-4-(trifluoromethyl)phenoxy)methyl)azetidin-1-yl)carbonyl)-2H-1,4-benzoxazin-3(4H)-one]
9 | 100 | O=C1COc2cc(F)c(C(=O)N3CC(COc4ccc5scnc5c4)C3)cc2N1 [Example 104, 6-((3-((1,3-benzothiazol-5-yloxy)methyl)azetidin-1-yl)carbonyl)-7-fluoro-2H-1,4-benzoxazin-3(4H)-one]
10 | 93 | CC(=O)n1ncc2c(OCC3CCN(C(=O)c4ccc5c(c4)NC(=O)CO5)CC3)cccc21 [Example 63, 6-((4-(((1-acetyl-1H-indazol-4-yl)oxy)methyl)piperidin-1-yl)carbonyl)-2H-1,4-benzoxazin-3(4H)-one]
11 | 99 | CC(Oc1ccc(F)cc1F)C1CCN(C(=O)c2cc3c(cc2F)OCC(=O)N3)CC1 (stereo not shown) [Example 294, 6-((4-(1-(2,4-difluorophenoxy)ethyl)piperidin-1-yl)carbonyl)-7-fluoro-2H-1,4-benzoxazin-3(4H)-one]
12 | 99 | COc1cc2c(cc1C(=O)N1CC(COc3ccc(F)cc3Cl)C1)NC(=O)CO2 [Example 98, 6-((3-((2-chloro-4-fluorophenoxy)methyl)azetidin-1-yl)carbonyl)-7-methoxy-2H-1,4-benzoxazin-3(4H)-one]
13 | 88 | O=C1COc2cc(F)c(C(=O)N3CC(COc4ccc(-c5cccc(F)n5)cc4F)C3)cc2N1 [Example 289, 7-fluoro-6-((3-((2-fluoro-4-(6-fluoropyridin-2-yl)phenoxy)methyl)azetidin-1-yl)carbonyl)-2H-1,4-benzoxazin-3(4H)-one]
14 | 100 | O=C1COc2ncc(C(=O)N3CCC(COc4cc(Cl)ccc4Cl)CC3)cc2N1 [Example 18, 7-((4-((2,5-dichlorophenoxy)methyl)piperidin-1-yl)carbonyl)-1H-pyrido[2,3-b][1,4]oxazin-2(3H)-one]
15 | 101 | O=C1COc2cc(F)c(C(=O)N3CC(OCc4ccc(C(F)F)cc4F)C3)cc2N1 [Example 352, 6-((3-((4-(difluoromethyl)-2-fluorobenzyl)oxy)azetidin-1-yl)carbonyl)-7-fluoro-2H-1,4-benzoxazin-3(4H)-one]
16 | 99 | CC(C)(C)c1ccc(OCC2CN(C(=O)c3cc4c(cc3F)OCC(=O)N4)C2)c(Cl)c1 [Example 118, 6-((3-((4-tert-butyl-2-chlorophenoxy)methyl)azetidin-1-yl)carbonyl)-7-fluoro-2H-1,4-benzoxazin-3(4H)-one]
17 | 102 | Cn1cccc1-c1ccc(OCC2CN(C(=O)c3cc4c(cc3F)OCC(=O)N4)C2)c(F)c1 [Example 255, 7-fluoro-6-((3-((2-fluoro-4-(1-methyl-1H-pyrrol-2-yl)phenoxy)methyl)azetidin-1-yl)carbonyl)-2H-1,4-benzoxazin-3(4H)-one]
18 | 98 | O=C1COc2cc(F)c(C(=O)N3CCC(COc4ccc(F)cc4-c4ccccc4)CC3)cc2N1 [Example 100, 7-fluoro-6-((4-(((5-fluorobiphenyl-2-yl)oxy)methyl)piperidin-1-yl)carbonyl)-2H-1,4-benzoxazin-3(4H)-one]
19 | 97 | O=C1COc2ccc(C(=O)N3CCC(COc4ccccc4F)CC3)cc2N1 [Example 94, 6-((4-((2-fluorophenoxy)methyl)piperidin-1-yl)carbonyl)-2H-1,4-benzoxazin-3(4H)-one]
20 | 97 | O=C1COc2cc(F)c(C(=O)N3CCC(COC4CCC(F)(F)CC4)CC3)cc2N1 [Example 95, 6-((4-(((4,4-difluorocyclohexyl)oxy)methyl)piperidin-1-yl)carbonyl)-7-fluoro-2H-1,4-benzoxazin-3(4H)-one]
21 | 98 | CC(C)(O)c1ccc(OCC2CCN(C(=O)c3cc4c(cc3F)OCC(=O)N4)CC2)c(Cl)c1 [Example 90, 6-((4-((2-chloro-4-(2-hydroxypropan-2-yl)phenoxy)methyl)piperidin-1-yl)carbonyl)-7-fluoro-2H-1,4-benzoxazin-3(4H)-one]
22 | 98 | O=C1COc2cc(F)c(C(=O)N3CC(COc4ccc(-c5cccnc5)cc4F)C3)cc2N1 [Example 261, 7-fluoro-6-((3-((2-fluoro-4-(pyridin-3-yl)phenoxy)methyl)azetidin-1-yl)carbonyl)-2H-1,4-benzoxazin-3(4H)-one]
23 | 100 | O=C1COc2ccc(C(=O)N3CCC(COc4ccc(Cl)c(Cl)c4)CC3)cc2N1 [Example 43, 6-((4-((3,4-dichlorophenoxy)methyl)piperidin-1-yl)carbonyl)-2H-1,4-benzoxazin-3(4H)-one]
24 | 96 | O=C1COc2ccc(C(=O)N3CCC(COc4ccc(OC(F)(F)F)cc4)CC3)cc2N1 [Example 55, 6-((4-((4-(trifluoromethoxy)phenoxy)methyl)piperidin-1-yl)carbonyl)-2H-1,4-benzoxazin-3(4H)-one]
25 | 99 | Cc1ccc(OCC2CN(C(=O)c3cc4c(cc3F)OCC(=O)N4)C2)cc1Cl [Example 183, 6-((3-((3-chloro-4-methylphenoxy)methyl)azetidin-1-yl)carbonyl)-7-fluoro-2H-1,4-benzoxazin-3(4H)-one]

— patent US10106556B2, “Heterocyclic compound” (TAKEDA PHARMACEUTICAL COMPANY LIMITED, priority 2015, dated 2018)
